Laboratory results: US20240199692A1 (priority 2019, published 2024)
Where a SMILES comes first, the peptide text is derived from it. [ ]: non-standard residue; d: D form. The star is where a group is joined. Benzoyl(4-(4-EtNHCO-PhO)) = CCNC(=O)c1ccc(Oc2ccc(C(=O)*)cc2)cc1; Benzoyl(4-O-C6H4-4-CONHMe) = CNC(=O)c1ccc(Oc2ccc(C(=O)*)cc2)cc1; X16 = O=C(O)CCNC(=O)c1ccc(Oc2ccc(C(=O)*)cc2)cc1; X19 = O=C(O)CNC(=O)c1ccc(Oc2ccc(C(=O)*)cc2)cc1; X6 = NCCCCNC(=O)c1ccc(Oc2ccc(C(=O)*)cc2)cc1; Benzoyl(4-OPh) = O=C(c1ccc(Oc2ccccc2)cc1)*; X9 = O=C(NCCCO)c1ccc(Oc2ccc(C(=O)*)cc2)cc1; NMeI = CC[C@H](C)[C@H](NC)C(=O)O; NMeE = CN[C@@H](CCC(=O)O)C(=O)O; NMeN = CN[C@@H](CC(N)=O)C(=O)O; Dap(Me) = CNC[C@H](N)C(=O)O; β3hP = O=C(O)C[C@@H]1CCCN1; Orn = NCCC[C@H](N)C(=O)O; Dab = NCC[C@H](N)C(=O)O; Ahx = NCCCCCC(=O)O; Ava = NCCCCC(=O)O; GABA = NCCCC(=O)O

Target: T1, MMP2 (Homo sapiens, UniProt P08253)
T1 sequence (P08253 110-660): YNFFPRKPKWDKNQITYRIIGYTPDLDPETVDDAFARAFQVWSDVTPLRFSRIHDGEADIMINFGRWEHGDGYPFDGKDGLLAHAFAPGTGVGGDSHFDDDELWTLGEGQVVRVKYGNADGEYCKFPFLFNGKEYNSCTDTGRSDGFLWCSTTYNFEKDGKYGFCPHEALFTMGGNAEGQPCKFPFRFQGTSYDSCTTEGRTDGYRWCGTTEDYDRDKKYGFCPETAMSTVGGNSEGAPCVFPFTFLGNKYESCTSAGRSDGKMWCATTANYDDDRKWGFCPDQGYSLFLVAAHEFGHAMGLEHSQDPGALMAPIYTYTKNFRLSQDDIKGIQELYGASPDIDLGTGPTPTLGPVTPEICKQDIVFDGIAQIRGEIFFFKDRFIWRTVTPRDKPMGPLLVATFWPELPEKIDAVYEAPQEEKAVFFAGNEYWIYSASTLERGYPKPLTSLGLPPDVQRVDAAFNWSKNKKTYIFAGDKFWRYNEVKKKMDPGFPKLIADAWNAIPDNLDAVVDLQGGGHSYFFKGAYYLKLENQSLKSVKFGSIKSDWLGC
Assay: Inhibitory effects on human MMP2 (Method 1), enzyme assay with MOCAc-Pro-Leu-Gly-Leu-A2pr(Dnp)-Ala-Arg-NH2 substrate, 96-well
Format: biochemical
Conditions: Test Example No. 1-1 (Method 1, 96-well microplate); read-out: Human MMP2, IC50
Procedure: In a reaction solution [50 mmol/L Tris-HCl (pH 7.5), 150 mmol/L NaCl, 10 mmol/L CaCl2, 0.05% Brij L23], 100 μg/mL human recombinant MMP2 enzyme and 1 mmol/L 4-Aminophenylmercuric acetate were mixed together, and reacted at 37° C. for 60 minutes. The human MMP2 activated through the reaction was poured into a 96-well microplate to reach a final concentration of 0.7 or 7 ng/mL.

Compound | IC50 [nM]
CC[C@H](C)[C@@H](C(=O)N1CCC[C@H]1CC(N)=O)N(C)C(=O)[C@H](CC(C)C)NC(=O)[C@H](CCN)NC(=O)[C@H](CC(=O)O)NC(=O)[C@H](CCC(=O)O)NC(=O)CCCNC(=O)c1ccc(Oc2ccccc2)cc1 [Compound 147] ({Benzoyl(4-OPh)-GABA}-ED[Dab]L[NMeI][β3hP]-NH2; N-terminus assumed) | 0.14
CC[C@H](C)[C@@H](C(=O)N1CCC[C@H]1CC(N)=O)N(C)C(=O)[C@H](CC(C)C)NC(=O)[C@H](CCN)NC(=O)[C@H](CC(=O)O)NC(=O)[C@H](CCCN)NC(=O)CCCNC(=O)c1ccc(Oc2ccccc2)cc1 [Compound 148] ({Benzoyl(4-OPh)-GABA}-[Orn]D[Dab]L[NMeI][β3hP]-NH2; N-terminus assumed) | 0.48
CC[C@H](C)[C@@H](C(=O)N1CCC[C@H]1CC(N)=O)N(C)C(=O)[C@H](CC(C)C)NC(=O)[C@H](CNC)NC(=O)[C@H](CC(=O)O)NC(=O)[C@H](CC(N)=O)N(C)C(=O)CCCNC(=O)c1ccc(Oc2ccccc2)cc1 [Compound 154] ({Benzoyl(4-OPh)-GABA}-[NMeN]D[Dap(Me)]L[NMeI][β3hP]-NH2; N-terminus assumed) | 0.44
CNC(=O)c1ccc(Oc2ccc(C(=O)NCCCC(=O)N[C@@H](CC(N)=O)C(=O)N[C@@H](CC(=O)O)C(=O)N[C@@H](C)C(=O)N[C@@H](CC(C)C)C(=O)N[C@@H](CCSC)C(=O)N3CCC[C@H]3C(N)=O)cc2)cc1 [Compound 177, N^2-(4-{4-[4-(methylcarbamoyl)phenoxy]benzamido}butanoyl)-L-asparaginyl-L-α-aspartyl-L-alanyl-L-leucyl-L-methionyl-L-prolinamide] ({Benzoyl(4-O-C6H4-4-CONHMe)-GABA}-NDALMP-NH2) | 0.21
CSCC[C@H](NC(=O)[C@H](CC(C)C)NC(=O)[C@H](C)NC(=O)[C@H](CC(=O)O)NC(=O)[C@H](CC(N)=O)NC(=O)CCCCNC(=O)c1ccc(Oc2ccc(C(=O)NCC(=O)O)cc2)cc1)C(=O)N1CCC[C@H]1C(N)=O [Compound 178] ({X19-Ava}-NDALMP-NH2; N-terminus assumed) | 3.6
CC(C)C[C@H](NC(=O)[C@H](CCN)NC(=O)[C@H](CC(=O)O)NC(=O)[C@H](CC(N)=O)NC(=O)CCCCNC(=O)c1ccc(Oc2ccc(C(=O)NCCCCN)cc2)cc1)C(=O)N(C)[C@@H](CCC(=O)O)C(=O)N1CCC[C@H]1CC(N)=O [Compound 181] ({X6-Ava}-ND[Dab]L[NMeE][β3hP]-NH2; N-terminus assumed) | 3.1
CC(C)C[C@H](NC(=O)[C@H](CCN)NC(=O)[C@H](CC(=O)O)NC(=O)[C@H](CC(N)=O)NC(=O)CCCCNC(=O)c1ccc(Oc2ccc(C(=O)NCCCO)cc2)cc1)C(=O)N(C)[C@@H](CCC(=O)O)C(=O)N1CCC[C@H]1CC(N)=O [Compound 182] ({X9-Ava}-ND[Dab]L[NMeE][β3hP]-NH2; N-terminus assumed) | 0.49
CC(C)C[C@H](NC(=O)[C@H](CCN)NC(=O)[C@H](CC(=O)O)NC(=O)[C@H](CC(N)=O)NC(=O)CCCCNC(=O)c1ccc(Oc2ccc(C(=O)NCCC(=O)O)cc2)cc1)C(=O)N(C)[C@@H](CCC(=O)O)C(=O)N1CCC[C@H]1CC(N)=O [Compound 183] ({X16-Ava}-ND[Dab]L[NMeE][β3hP]-NH2; N-terminus assumed) | 7
CNC(=O)c1ccc(Oc2ccc(C(=O)NCCCCC(=O)N[C@@H](CCCCN)C(=O)N[C@@H](CC(=O)O)C(=O)N[C@@H](CCN)C(=O)N[C@@H](CC(C)C)C(=O)N(C)[C@@H](CCC(=O)O)C(=O)N3CCC[C@H]3CC(N)=O)cc2)cc1 [Compound 184] ({Benzoyl(4-O-C6H4-4-CONHMe)-Ava}-KD[Dab]L[NMeE][β3hP]-NH2; N-terminus assumed) | 0.61
CC[C@H](C)[C@@H](C(=O)N1CCC[C@H]1CC(N)=O)N(C)C(=O)[C@H](CC(C)C)NC(=O)[C@H](CCN)NC(=O)[C@H](CC(=O)O)NC(=O)[C@H](CCCCN)NC(=O)CCCCNC(=O)c1ccc(Oc2ccc(C(=O)NC)cc2)cc1 [Compound 185] ({Benzoyl(4-O-C6H4-4-CONHMe)-Ava}-KD[Dab]L[NMeI][β3hP]-NH2; N-terminus assumed) | 1
CNC(=O)c1ccc(Oc2ccc(C(=O)NCCCCCC(=O)N[C@@H](CCCCN)C(=O)N[C@@H](CC(=O)O)C(=O)N[C@@H](CCN)C(=O)N[C@@H](CC(C)C)C(=O)N(C)[C@@H](CCC(=O)O)C(=O)N3CCC[C@H]3CC(N)=O)cc2)cc1 [Compound 186] ({Benzoyl(4-O-C6H4-4-CONHMe)-Ahx}-KD[Dab]L[NMeE][β3hP]-NH2; N-terminus assumed) | 2
CC[C@H](C)[C@@H](C(=O)N1CCC[C@H]1CC(N)=O)N(C)C(=O)[C@H](CC(C)C)NC(=O)[C@H](CCN)NC(=O)[C@H](CC(=O)O)NC(=O)[C@H](CCCCN)NC(=O)CCCCCNC(=O)c1ccc(Oc2ccc(C(=O)NC)cc2)cc1 [Compound 187] ({Benzoyl(4-O-C6H4-4-CONHMe)-Ahx}-KD[Dab]L[NMeI][β3hP]-NH2; N-terminus assumed) | 2.8
CNC(=O)c1ccc(Oc2ccc(C(=O)NCCCCC(=O)N[C@@H](CCCNC(=N)N)C(=O)N[C@@H](CC(=O)O)C(=O)N[C@@H](CCN)C(=O)N[C@@H](CC(C)C)C(=O)N(C)[C@@H](CCC(=O)O)C(=O)N3CCC[C@H]3CC(N)=O)cc2)cc1 [Compound 188] ({Benzoyl(4-O-C6H4-4-CONHMe)-Ava}-RD[Dab]L[NMeE][β3hP]-NH2; N-terminus assumed) | 0.81
CC[C@H](C)[C@@H](C(=O)N1CCC[C@H]1CC(N)=O)N(C)C(=O)[C@H](CC(C)C)NC(=O)[C@H](CCN)NC(=O)[C@H](CC(=O)O)NC(=O)[C@H](CCCNC(=N)N)NC(=O)CCCCNC(=O)c1ccc(Oc2ccc(C(=O)NC)cc2)cc1 [Compound 189] ({Benzoyl(4-O-C6H4-4-CONHMe)-Ava}-RD[Dab]L[NMeI][β3hP]-NH2; N-terminus assumed) | 0.86
CNC(=O)c1ccc(Oc2ccc(C(=O)NCCCCCC(=O)N[C@@H](CCCNC(=N)N)C(=O)N[C@@H](CC(=O)O)C(=O)N[C@@H](CCN)C(=O)N[C@@H](CC(C)C)C(=O)N(C)[C@@H](CCC(=O)O)C(=O)N3CCC[C@H]3CC(N)=O)cc2)cc1 [Compound 190] ({Benzoyl(4-O-C6H4-4-CONHMe)-Ahx}-RD[Dab]L[NMeE][β3hP]-NH2; N-terminus assumed) | 1.8
CC[C@H](C)[C@@H](C(=O)N1CCC[C@H]1CC(N)=O)N(C)C(=O)[C@H](CC(C)C)NC(=O)[C@H](CCN)NC(=O)[C@H](CC(=O)O)NC(=O)[C@H](CCCNC(=N)N)NC(=O)CCCCCNC(=O)c1ccc(Oc2ccc(C(=O)NC)cc2)cc1 [Compound 191] ({Benzoyl(4-O-C6H4-4-CONHMe)-Ahx}-RD[Dab]L[NMeI][β3hP]-NH2; N-terminus assumed) | 2.7
CCNC(=O)c1ccc(Oc2ccc(C(=O)NCCCCC(=O)N[C@@H](CCCCN)C(=O)N[C@@H](CC(=O)O)C(=O)N[C@@H](CCN)C(=O)N[C@@H](CC(C)C)C(=O)N(C)[C@@H](CCC(=O)O)C(=O)N3CCC[C@H]3CC(N)=O)cc2)cc1 [Compound 192] ({Benzoyl(4-(4-EtNHCO-PhO))-Ava}-KD[Dab]L[NMeE][β3hP]-NH2; N-terminus assumed) | 1.9
CCNC(=O)c1ccc(Oc2ccc(C(=O)NCCCCC(=O)N[C@@H](CCCCN)C(=O)N[C@@H](CC(=O)O)C(=O)N[C@@H](CCN)C(=O)N[C@@H](CC(C)C)C(=O)N(C)[C@H](C(=O)N3CCC[C@H]3CC(N)=O)[C@@H](C)CC)cc2)cc1 [Compound 193] ({Benzoyl(4-(4-EtNHCO-PhO))-Ava}-KD[Dab]L[NMeI][β3hP]-NH2; N-terminus assumed) | 1.7
